Results as given in the NIST ThermoML archive (doi:10.1021/je900596d).
± gives the expanded uncertainty stated by the source.

Details: 263.49 K, Liquid, Vibrating tube method

FC(F)=C(F)C(F)(F)F [hexafluoropropene]
Details | mass density [kg/m3]
1283.2 kPa | 1467.96 ± 1.5
1321.2 kPa | 1468.22 ± 1.5
1359 kPa | 1468.47 ± 1.5
1389.9 kPa | 1468.56 ± 1.5
1425.3 kPa | 1468.74 ± 1.5
1461.6 kPa | 1468.94 ± 1.5
1497.9 kPa | 1469.16 ± 1.5
1539.1 kPa | 1469.32 ± 1.5
1576.4 kPa | 1469.48 ± 1.5
1610 kPa | 1469.68 ± 1.5
1646.8 kPa | 1469.96 ± 1.5
1683.2 kPa | 1470.1 ± 1.5
1718.2 kPa | 1470.09 ± 1.5
1769.7 kPa | 1470.55 ± 1.5
1804.7 kPa | 1470.64 ± 1.5
1839 kPa | 1470.88 ± 1.5
1873.5 kPa | 1471.02 ± 1.5
1912.3 kPa | 1471.22 ± 1.5
1948.3 kPa | 1471.32 ± 1.5
1983.7 kPa | 1471.42 ± 1.5
2017.6 kPa | 1471.69 ± 1.5
2077.4 kPa | 1472.02 ± 1.5
2137.9 kPa | 1472.31 ± 1.5
2195.3 kPa | 1472.62 ± 1.5
2252 kPa | 1472.79 ± 1.5
2309.6 kPa | 1473.18 ± 1.5
2367.3 kPa | 1473.43 ± 1.5
2430.6 kPa | 1473.71 ± 1.5
2489.1 kPa | 1474.06 ± 1.5
2551.6 kPa | 1474.23 ± 1.5
2614.8 kPa | 1474.71 ± 1.5
2675.4 kPa | 1474.88 ± 1.5
2733.4 kPa | 1475.13 ± 1.5
2790.5 kPa | 1475.34 ± 1.5
2848.5 kPa | 1475.67 ± 1.5
2905.6 kPa | 1475.93 ± 1.5
2969.6 kPa | 1476.29 ± 1.5
3029.8 kPa | 1476.52 ± 1.5
3093.3 kPa | 1476.76 ± 1.5
3152.2 kPa | 1477.08 ± 1.5
3211.2 kPa | 1477.32 ± 1.5
3270.4 kPa | 1477.64 ± 1.5
3327.3 kPa | 1477.91 ± 1.5
3384.6 kPa | 1478.13 ± 1.5
3443.8 kPa | 1478.55 ± 1.5
3501.1 kPa | 1478.67 ± 1.5
3558.2 kPa | 1479.03 ± 1.5
3616.7 kPa | 1479.25 ± 1.5
3674.3 kPa | 1479.49 ± 1.5
3737.9 kPa | 1479.79 ± 1.5
3796.5 kPa | 1480.12 ± 1.5
3856.1 kPa | 1480.36 ± 1.5
3913.3 kPa | 1480.59 ± 1.5
3976.1 kPa | 1480.92 ± 1.5
4010.9 kPa | 1481.02 ± 1.5
4071.8 kPa | 1481.39 ± 1.5
4136 kPa | 1481.55 ± 1.5
4197.2 kPa | 1481.92 ± 1.5
4261.2 kPa | 1482.25 ± 1.5
4322.1 kPa | 1482.4 ± 1.5
4382.2 kPa | 1482.79 ± 1.5
4447.1 kPa | 1482.98 ± 1.5
4507.5 kPa | 1483.36 ± 1.5
4568.4 kPa | 1483.61 ± 1.5
4635.4 kPa | 1483.93 ± 1.5
4696.7 kPa | 1484.25 ± 1.5
4757 kPa | 1484.43 ± 1.5
4816.4 kPa | 1484.73 ± 1.5
4881.5 kPa | 1484.9 ± 1.5
4946.3 kPa | 1485.39 ± 1.5
5104.8 kPa | 1485.97 ± 1.5
5190.1 kPa | 1486.45 ± 1.5
5273.8 kPa | 1486.72 ± 1.5
5369.3 kPa | 1487.1 ± 1.5
5456.3 kPa | 1487.53 ± 1.5
5538.4 kPa | 1487.84 ± 1.5
5622.6 kPa | 1488.18 ± 1.5
5711.1 kPa | 1488.61 ± 1.5
5793.3 kPa | 1489.06 ± 1.5
5877.9 kPa | 1489.31 ± 1.5
5963.2 kPa | 1489.67 ± 1.5
6047.6 kPa | 1490.11 ± 1.5
6129.9 kPa | 1490.42 ± 1.5
6210.8 kPa | 1490.7 ± 1.5
6292.4 kPa | 1491.15 ± 1.5
6372.6 kPa | 1491.45 ± 1.5
6452.8 kPa | 1491.79 ± 1.5
6538.6 kPa | 1492.18 ± 1.5
6628.4 kPa | 1492.5 ± 1.5
6710.5 kPa | 1492.84 ± 1.5
6798.1 kPa | 1493.29 ± 1.5
6878.8 kPa | 1493.62 ± 1.5
6965.4 kPa | 1493.98 ± 1.5
7052.5 kPa | 1494.32 ± 1.5
7137.8 kPa | 1494.61 ± 1.5
7224.6 kPa | 1495 ± 1.5
7315.1 kPa | 1495.44 ± 1.5
7400.9 kPa | 1495.77 ± 1.5
7483.2 kPa | 1496.09 ± 1.5
7573.2 kPa | 1496.53 ± 1.5
7663 kPa | 1496.86 ± 1.5
7746.1 kPa | 1497.24 ± 1.5
7835.3 kPa | 1497.57 ± 1.5
7920.3 kPa | 1497.86 ± 1.5
8008.2 kPa | 1498.24 ± 1.5
8089.2 kPa | 1498.57 ± 1.5
8180.4 kPa | 1498.95 ± 1.6
8262.3 kPa | 1499.34 ± 1.6
8343 kPa | 1499.65 ± 1.6
8431 kPa | 1499.96 ± 1.6
8519.4 kPa | 1500.29 ± 1.6
8604.9 kPa | 1500.75 ± 1.6
8687 kPa | 1500.96 ± 1.6
8773.6 kPa | 1501.36 ± 1.6
8859.6 kPa | 1501.69 ± 1.6
8940.8 kPa | 1502.04 ± 1.6
9033.4 kPa | 1502.38 ± 1.6
9121.4 kPa | 1502.79 ± 1.6
9202.4 kPa | 1503.09 ± 1.6
9288.6 kPa | 1503.44 ± 1.6
9371.7 kPa | 1503.79 ± 1.6
9460.9 kPa | 1504.15 ± 1.6
9501.4 kPa | 1504.21 ± 1.6
9543.4 kPa | 1504.4 ± 1.6
9588.9 kPa | 1504.56 ± 1.6
9629.7 kPa | 1504.74 ± 1.6
9675.2 kPa | 1504.91 ± 1.6
9717.5 kPa | 1505.02 ± 1.6
9760.3 kPa | 1505.19 ± 1.6
9806 kPa | 1505.39 ± 1.6
9849.5 kPa | 1505.65 ± 1.6
9893.1 kPa | 1505.74 ± 1.6
9933.7 kPa | 1505.89 ± 1.6
